This is an account of results in US20180273531A1, “PYRIMIDINE COMPOUND AND MEDICAL USE THEREOF” (Japan Tobacco Inc., priority 2004, published 2018).

Format in all cases: cell-based
One experiment has as its system p15 protein. Description: Evaluation of p15 induction activity (Western blotting). Conditions: test substance 0.1 μM, 24 hrs, ACHN cells or HT-29 cells, compared to DMSO, n=2. Summed up:
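p15 protein quantified by densitometry of anti-p15 Western blots (10 μg protein per lane, mean of n=2). Samples came from HT-29 or ACHN cells given 0.1 μM compound for 24 h after 24 h plating, with DMSO as control.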

For experiment [1], the system named is Renal cancer cell line ACHN cell. Description: Growth inhibitory effect against cancer cell lines (3H-thymidine uptake), ACHN. Conditions: Homo sapiens, ACHN. An outline of the steps: (§1)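 Cells seeded at 1.0×10^4/well, grown 24 hrs, then exposed to compound in DMSO for 18 hrs before 6 hrs pulse with ^3H-thymidine (0.25 μCi/well). Harvested cell-incorporated radioactivity counted; IC50 is the concentration halving uptake versus DMSO control, triplicate.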

Experiment [2] deals with colorectal cancer cell line HT-29 cells. Description: Growth inhibitory effect against cancer cell lines (3H-thymidine uptake), HT-29. Conditions: Homo sapiens, HT-29, inhibition of 3H-thymidine uptake; test substance 18 hrs, then 3H-thymidine 6 hrs; triplicate. An outline of the steps: as §1
Another experiment has as its system p27 protein. Description: p27 protein induction test (Western blotting). Conditions: test substance (0.1 1M), 24 hrs, ACHN cells or HT-29 cells, compared to DMSO, n=2. An outline of the steps:
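ACHN or HT-29 cells grown 24 h, then treated with test substance at […] (DMSO) for 24 h. Lysates normalised by protein content and probed by Western blot with anti-p27 antibody. Band density quantified by densitometer against DMSO control, n=2 averaged.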

Usually fold induction stands for the ratio of treated to control signal. A lower fold induction goes with little rise in signal. The IC50 is the point on the concentration scale where inhibition reaches its midpoint. Lower therefore signals greater potency. With `CN(C)S(=O)(=O)c1cccc(-n2c(=O)n(C3CC3)c(=O)c3c(Nc4ccc(Br)cc4F)cc(=O)n(C)c32)c1` [Example 1-224], the fold induction at 0.1 µM with p15 protein and with p27 protein was no less than 1.5 each time. Further, the values for the IC50 in experiment [1] and in experiment [2] were 100 to 1000 nM and less than 10 nM, respectively.

Take `Cn1c(=O)cc(Nc2ccc(Br)cc2F)c2c(=O)n(C3CC3)c(=O)n(-c3cccc(CCCO)c3)c21` [Example 1-243]: the fold induction at 0.1 µM in the experiment with p15 protein and in the experiment with p27 protein was no less than 1.5 in each case. In addition, the half-inhibitory concentration (IC50) in experiment [1] lay within 100 to 1000 nM; in experiment [2], 10 to 100 nM.

Turning to `CCc1ccc(Nc2cc(=O)n(C)c3c2c(=O)n(C2CC2)c(=O)n3-c2cccc(NS(=O)(=O)CC)c2)c(F)c1` [Example 1-268], the fold induction at 0.1 µM with p15 protein and in the experiment with p27 protein was no less than 1.5 in each case. Further, the IC50 in experiment [1] and in experiment [2] was 10 to 100 nM each time.

For the molecule `CCc1ccc(Nc2c3c(=O)n(C4CC4)c(=O)n(-c4cccc(NC(C)=O)c4)c3c(C)c(=O)n2C)c(F)c1` [Example 4-9], the fold induction at 0.1 µM with p15 protein and in the experiment on p27 protein was no less than 1.5 in each case. In addition, the IC50 is 10 to 100 nM in experiment [1] and less than 10 nM in experiment [2].

For the molecule `Cc1c(=O)n(C)c(Nc2ccc(I)cc2F)c2c(=O)n(C3CC3)c(=O)n(-c3ccc4c(c3)NC(=O)CC4)c12` [Example 4-123], the fold induction at 0.1 µM with p15 protein and in the experiment on p27 protein was no less than 1.5 each time. Also, the half-inhibitory concentration (IC50) in experiment [1] is 100 to 1000 nM; in experiment [2], less than 10 nM.

Regarding `Cc1c(=O)n(C)c(Nc2ccc(I)cc2F)c2c(=O)n(C3CC3)c(=O)n(-c3cccc(N4C(=O)CNC4=O)c3)c12` [Example 4-108], the fold induction at 0.1 µM in the experiment with p15 protein and with p27 protein was no less than 1.5 in each case. The IC50 is 10 to 100 nM in experiment [1] and less than 10 nM in experiment [2].

Turning to `Cc1c(=O)n(C)c(Nc2ccc(I)cc2F)c2c(=O)n(C3CC3)c(=O)n(-c3cccc(NC4=NCCO4)c3)c12` [Example 4-110], the fold induction at 0.1 µM in the experiment with p15 protein and in the experiment with p27 protein was no less than 1.5 in each case. For the same molecule, the values for the IC50 in experiment [1] and in experiment [2] were 10 to 100 nM and less than 10 nM, respectively.

As to `CCc1ccc(Nc2c3c(=O)n(C)c(=O)n(-c4cccc(NS(C)(=O)=O)c4)c3c(C)c(=O)n2C)c(F)c1` [Example 4-51], the fold induction at 0.1 µM in the experiment on p15 protein and with p27 protein was no less than 1.5 each time. The IC50 in experiment [1] is 10 to 100 nM; in experiment [2], less than 10 nM.

With `C#Cc1ccc(Nc2cc(=O)n(C)c3c2c(=O)n(C2CC2)c(=O)n3-c2cccc(NS(C)(=O)=O)c2)c(Cl)c1` [Example 1-337], the fold induction at 0.1 µM in the experiment on p15 protein and in the experiment with p27 protein was no less than 1.5 throughout. The half-maximal inhibitory concentration (IC50) in experiment [1] is 10 to 100 nM; in experiment [2] it was less than 10 nM.

`Cc1cc(I)ccc1Nc1cc(=O)n(C)c2c1c(=O)n(C1CC1)c(=O)n2-c1cccc(NS(C)(=O)=O)c1` [Example 1-340]: the fold induction at 0.1 µM in the experiment with p15 protein and in the experiment with p27 protein was no less than 1.5 throughout. For the same molecule, the half-inhibitory concentration (IC50) in experiment [1] is 10 to 100 nM; in experiment [2] it was less than 10 nM.

Consider `C=Cc1ccc(Nc2c3c(=O)n(C4CC4)c(=O)n(-c4cccc(NC(C)=O)c4)c3c(C)c(=O)n2C)c(F)c1` [Example 4-11], for which the fold induction at 0.1 µM in the experiment with p15 protein and with p27 protein was no less than 1.5 in each case. For the same molecule, the figures for the IC50 in experiment [1] and in experiment [2] were 10 to 100 nM and less than 10 nM, respectively.

As to `Cc1c(=O)n(C)c(Nc2ccc(I)cc2F)c2c(=O)n(C3CC3)c(=O)n(-c3cccc(NC=O)c3)c12` [Example 4-113], the fold induction at 0.1 µM with p15 protein and in the experiment on p27 protein was no less than 1.5 in each case. The IC50 in experiment [1] and in experiment [2] was less than 10 nM in each case.

On to `Cc1c(=O)n(C)c(Nc2ccc(I)cc2F)c2c(=O)n(C3CC3)c(=O)n(-c3cccc(S(C)(=O)=O)c3)c12` [Example 4-55], for which the fold induction at 0.1 µM in the experiment on p15 protein and in the experiment on p27 protein was no less than 1.5 in each case. Besides, the figures for the IC50 in experiment [1] and in experiment [2] were 10 to 100 nM and less than 10 nM, respectively.

In the case of `Cc1c(=O)n(C)c(Nc2ccc(I)cc2F)c2c(=O)n(C3CC3)c(=O)n(-c3cccc(N4CCNS4(=O)=O)c3)c12` [Example 4-114], the fold induction at 0.1 µM with p15 protein and in the experiment with p27 protein was no less than 1.5 throughout. Besides, the IC50 in experiment [1] was 10 to 100 nM; in experiment [2], less than 10 nM.

As to `CC(=O)Nc1ccc(-n2c(=O)n(C3CC3)c(=O)c3c(Nc4ccc(I)cc4F)n(C)c(=O)c(C)c32)cc1` [Example 4-66], the fold induction at 0.1 µM in the experiment on p15 protein and in the experiment on p27 protein was no less than 1.5 each time. Also, the IC50 in experiment [1] was 100 to 1000 nM; in experiment [2], 10 to 100 nM.

Turning to `CN(C)S(=O)(=O)c1ccc(-n2c(=O)n(C3CC3)c(=O)c3c(Nc4ccc(Br)cc4F)cc(=O)n(C)c32)cc1` [Example 1-226], the fold induction at 0.1 µM in the experiment with p15 protein and with p27 protein was no less than 1.5 each time. The IC50 in experiment [1] was 100 to 1000 nM; in experiment [2] it was 10 to 100 nM.

With `CNC(=O)Nc1cccc(-n2c(=O)n(C3CC3)c(=O)c3c(Nc4ccc(Br)cc4F)cc(=O)n(C)c32)c1` [Example 1-325], the fold induction at 0.1 µM with p15 protein and in the experiment on p27 protein was no less than 1.5 in each case. Moreover, the half-inhibitory concentration (IC50) in experiment [1] was 100 to 1000 nM; in experiment [2], 10 to 100 nM.

Take `C#Cc1ccc(Nc2cc(=O)n(C)c3c2c(=O)n(C2CC2)c(=O)n3-c2ccccc2)cc1` [Example 1-222]: the fold induction at 0.1 µM with p15 protein and in the experiment with p27 protein was no less than 1.5 in each case. Also, the IC50 in experiment [1] was in the range of 100 to 1000 nM; in experiment [2], 10 to 100 nM.

With `Cc1c(=O)n(C)c(Nc2ccc(I)cc2F)c2c(=O)n(C3CC3)c(=O)n(-c3ccccc3)c12` [Example 4-72], the fold induction at 0.1 µM with p15 protein and in the experiment with p27 protein was no less than 1.5 each time. Further, the IC50 in experiment [1] was 10 to 100 nM; in experiment [2], less than 10 nM.

For the molecule `Cc1c(=O)n(C)c(Nc2ccc(I)cc2F)c2c(=O)n(C3CC3)c(=O)n(-c3ccc4c(c3)NC(=O)C4(C)C)c12` [Example 4-128], the fold induction at 0.1 µM in the experiment on p15 protein and in the experiment with p27 protein was no less than 1.5 throughout. The values for the IC50 in experiment [1] and in experiment [2] were 10 to 100 nM and less than 10 nM, respectively.

On to `Cc1c(=O)n(C)c(Nc2ccc(I)cc2F)c2c(=O)n(C3CC3)c(=O)n(-c3ccc4c(c3)NC(=O)CO4)c12` [Example 4-118], for which the fold induction at 0.1 µM in the experiment with p15 protein and with p27 protein was no less than 1.5 each time. The figures for the IC50 in experiment [1] and in experiment [2] were 10 to 100 nM and less than 10 nM, respectively.

Take `CC(=O)Nc1cccc(-n2c(=O)n(C3CC3)c(=O)c3c(Nc4ccc(Br)cc4F)cc(=O)n(C)c32)c1` [Example 1-245]: the fold induction at 0.1 µM in the experiment on p15 protein and in the experiment on p27 protein was no less than 1.5 throughout. Further, the values for the IC50 in experiment [1] and in experiment [2] were 10 to 100 nM and less than 10 nM, respectively.

On to `Cn1c(=O)cc(Nc2ccc3sccc3c2)c2c(=O)n(C3CC3)c(=O)n(-c3ccccc3)c21` [Example 1-328], for which the fold induction at 0.1 µM with p15 protein and in the experiment on p27 protein was no less than 1.5 throughout. Also, the figures for the IC50 in experiment [1] and in experiment [2] were 100 to 1000 nM and 10 to 100 nM, respectively.

Consider `Cc1c(=O)n(C)c(Nc2ccc(I)cc2F)c2c(=O)n(C3CC3)c(=O)n(-c3ccc(C(N)=O)cc3)c12` [Example 4-91], for which the fold induction at 0.1 µM in the experiment with p15 protein and in the experiment on p27 protein was no less than 1.5 in each case. Also, the 50% inhibitory concentration (IC50) is 10 to 100 nM in experiment [1] and less than 10 nM in experiment [2].

With `Cn1c(=O)cc(Nc2ccc(Br)cc2F)c2c(=O)n(C3CC3)c(=O)n(-c3cccc(NS(=O)(=O)c4ccccc4)c3)c21` [Example 1-284], the fold induction at 0.1 µM with p15 protein and in the experiment on p27 protein was no less than 1.5 in each case. In addition, the IC50 in experiment [1] lay in the range of 100 to 1000 nM; in experiment [2], 10 to 100 nM.

Take `CCc1ccc(Nc2cc(=O)n(C)c3c2c(=O)n(C2CC2)c(=O)n3-c2ccccc2)c(F)c1` [Example 1-242]: the fold induction at 0.1 µM in the experiment with p15 protein and in the experiment with p27 protein was no less than 1.5 throughout. The IC50 is 100 to 1000 nM in experiment [1] and 10 to 100 nM in experiment [2].

Consider `CCCS(=O)(=O)Nc1cccc(-n2c(=O)n(C3CC3)c(=O)c3c(Nc4ccc(Br)cc4F)cc(=O)n(C)c32)c1` [Example 1-271], for which the fold induction at 0.1 µM in the experiment with p15 protein and in the experiment with p27 protein was no less than 1.5 each time. The IC50 in experiment [1] was 10 to 100 nM; in experiment [2], less than 10 nM.

Take `CNC(=O)c1ccc(-n2c(=O)n(C3CC3)c(=O)c3c(Nc4ccc(I)cc4F)n(C)c(=O)c(C)c32)cc1` [Example 4-92]: the fold induction at 0.1 µM in the experiment on p15 protein and in the experiment with p27 protein was no less than 1.5 throughout. Further, the half-inhibitory concentration (IC50) in experiment [1] is 10 to 100 nM; in experiment [2] it was less than 10 nM.

As to `CC(C)C(=O)Nc1cccc(-n2c(=O)n(C3CC3)c(=O)c3c(Nc4ccc(Br)cc4F)cc(=O)n(C)c32)c1` [Example 1-287], the fold induction at 0.1 µM in the experiment with p15 protein and with p27 protein was no less than 1.5 in each case. The figures for the IC50 in experiment [1] and in experiment [2] were 100 to 1000 nM and 10 to 100 nM, respectively.

On to `Cc1c(=O)n(C)c(Nc2ccc(I)cc2F)c2c(=O)n(C3CC3)c(=O)n(-c3cccc(NS(=O)(=O)N4CCCCC4)c3)c12` [Example 4-59], for which the fold induction at 0.1 µM in the experiment with p15 protein and in the experiment on p27 protein was no less than 1.5 throughout. Further, the IC50 is 10 to 100 nM in experiment [1] and less than 10 nM in experiment [2].

With `Cn1c(=O)cc(Nc2ccc(Br)cc2F)c2c(=O)n(C3CC3)c(=O)n(-c3ccccc3)c21` [Example 1-152], the fold induction at 0.1 µM in the experiment with p15 protein and in the experiment with p27 protein was no less than 1.5 in each case. Moreover, the IC50 in experiment [1] is 100 to 1000 nM; in experiment [2], 10 to 100 nM.
